Key:
[1] = Stability test of 1-APyl radical solution (oxygen sensitivity and nitrogen controls); format: physicochemical; conditions: 0.2 M, 5 mL
Method: (§1) FIGS. 8A-8C are related to direct air capture and stability test of 1-APyl radical 2 solution. […] 0.1, 0.2, and 0.4 M 1-APyl radical 2 aqueous solutions (1 mL) were bubbled with air at a flow rate of 3.3 mL/min at room temperature. […] The 1-APyl radical 2 solutions (0.2 M, 5 mL) were bubbled with dioxygen for 1 and 30 days (curve shading matching the shading of the labels in the figure) at a flow rate of 10 mL/min followed by contact with pure CO2 for an additional 12 min. The 1-APyl radical 2 solutions were sealed under nitrogen for 1 and 30 days followed by contact with pure CO2 for 12 min for the control experiments.
To test the stability of the 1-APyl radical in air, a set of experiments was carried out (FIG. 8C). Exposure to pure dioxygen (10 mL/min) of the 1-APyl radical 2 solution (0.2 M, 5 mL) for 1 and 30 days (see corresponding curve in FIG. 8C) followed by saturation with pure CO2 provided 6.6% and 46% decrease, respectively, of the capacity of the system compared to the output for the freshly CO2-saturated solution (see corresponding curve in FIG. 8C). […] Although further studies for the stability under the various conditions are warranted, operation in the presence of oxygen remains feasible.

[2] = CO2 absorption by electrochemically reduced amine solutions; conditions: for CO2 capacity (absorption capacity): 1 mL aqueous 0.1-0.2 M amine, reduced, 15% CO2 inlet gas
Method: FIGS. 6A-6D are related to CO2 absorption dynamics in 1-APyl radical 2 solutions. […] 0.2 M 1-APyl radical 2 solution in 1 mL of water was contacted with the gas at a flow rate of 3.3 mL/min at room temperature. […] 1 mL of 0.04 M 1-APyl radical 2 solution was contacted with the gas at a flow rate of 3.3 mL/min at room temperature. […] A flow of 15% CO2 concentration balanced by nitrogen was used.
The changes in flow rate and concentration of CO2 were monitored by a CO2 flow meter and an FT-IR CO2 sensor, respectively.

[3] = Cyclic voltammetry of the redox-active amines; conditions: for Ep^red vs Ag/AgCl / Potential gap / Ep^oxi vs Ag/AgCl: Table 1; for Ep^red vs Ag/AgCl / Ep^oxi vs Ag/AgCl: techniques of Example 1; for Potential gap: gap between Ep^oxi and Ep^red
Method: Potentials were recorded versus Ag/AgCl as a reference electrode.
Cyclic voltammetry (CV) was conducted to probe the mechanism of this process as depicted in FIG. 4E.
Each of structures 1-20 were assessed for electrochemical capture and release of carbon dioxide in accordance with the techniques described above in Example 1. Absorption capacities for carbon dioxide are reported in units of moles of CO2 per mole of amine. […] For the release experiments, 3.5 mL solutions of amine and captured carbon dioxide at concentrations ranging from 0.1-0.2 M of amine were electrochemically oxidized at a constant current of 50 mA while released CO2 was measured as a function of charge passed.

[4] = Cyclic stability of electrochemical CO2 capture and release over 5 cycles
Method: FIGS. 7A-7D are related to cyclic stability of the electrochemical CO2 capture and release by 1-AP nitrate (1) redox system for 5 cycles.
The reversible capture and release of CO2 was tested over five cycles to evaluate the robustness of the 1-AP nitrate redox cycle (FIG. 7A-7D). The cyclic stability was evaluated with a 0.8 mmol amine solution and restricted to operate at 80% of the full capacity of the cell in order to minimize undesired side reactions. The gas output and CO2 fraction were monitored to show reproducible and stable capture and release of CO2 during five cycles under the applied current conditions. The gas release rate was steady at 0.75 mL/min, consistent with the release of one mole of CO2 per mole electrons transferred under steady current flow in each cycle.

[5] = Electrochemical release of CO2 by constant-current oxidation in an H-cell (electron utilization); parameters: key to stable electron utilization: moles CO2 released per mole of electrons transferred; conditions: for εCO2 (electron utilization during CO2 release): moles of CO2 released per moles of electrons, 0.1-0.2 M amine, constant current 50 mA
Method: FIGS. 5A-5F are related to electrochemical release of CO2. FIG. 5A is a schematic of the experimental setup for CO2 release. […] The amount of released CO2 (curve A) and electron utilization (curve B) are shown versus electric charge.
A bench-scale setup using an electrochemical H-cell was constructed and tested for the capture and release of CO2 (FIG. 5A). The system was equipped with an anion exchange membrane separating two 5 mL reaction chambers, carbon felt as a working electrode, and a stainless steel wire electrode for an arbitrary reaction in the counter chamber. […] Then, pure CO2 was bubbled into the solution for 10 min to complete the saturation of the electrochemically generated 1-Apyl radical dimer 3 solution. […] The electron utilization (εCO2) during CO2 release on oxidation represents the ratio between the moles of CO2 released and the moles of electrons transferred (equation 1): […]

[6] = Direct capture of CO2 from ambient air, then electrochemical oxidation; conditions: 0.2 M, 3.5 mL, bubbled with air 18 h at ca. 100 mL/min
Method: as §1
We next sought to expand the use of the 1-AP nitrate redox cycle to the direct capture of CO2 from ambient air (FIGS. 8A-8C). The 1-APyl radical dimer 3 solution (3.5 mL) was prepared by first reducing a 0.2 M 1-AP nitrate (1) solution, and then bubbling the solution with non-pretreated air for 18 h at a flow rate of ca. 100 mL/min (FIG. 8A). Electrochemical oxidation of the air-bubbled solution was carried out to evaluate the direct air capture efficiency. The system presented electron utilization during CO2 release of up to 0.78 with 36% cell capacity usage with the 0.2 M solution. […] Initial CO2 absorption rates from the ambient air were measured in 0.1, 0.2, and 0.4 M solutions of 1-APyl radical 2 (FIG. 8B). […]

Aqueous solubility = format: physicochemical; conditions: Table 1, aqueous solution
[7] = in water; cited from earlier work
[8] = 20 mM in water, 0.1 M potassium nitrate, nitrogen, platinum working electrode, 20 mV/s, room temperature

Ep^red vs Ag/AgCl [3] | Potential gap [3] | Ep^oxi vs Ag/AgCl [3] | Compound | εCO2 (electron utilization during CO2 release) ([5]; 3.5 mL) | CO2 capacity (absorption capacity) ([2]; 3.3 mL/min) | further results
−0.55 V | 1.43 V | 0.88 V | N#Cc1cc[n+](N)cc1.O=[N+]([O-])[O-] [Entry 8] | 0.70 | 1.65 moles of CO2 per mole of amine | 
−0.56 V | 1.41 V | 0.85 V | N[n+]1ccc(O)cc1 [Entry 9] | 0.32 | 0.95 moles of CO2 per mole of amine | 
−0.47 V | 1.34 V | 0.87 V | CNc1cc[n+](N)cc1.O=[N+]([O-])[O-] [Entry 12] | 0.91 | 1.6 moles of CO2 per mole of amine | 
−0.47 V | 1.47 V | 1.00 V | Cc1ccc[n+](N)c1.[O-][Cl+3]([O-])([O-])[O-] [Entry 13] | 0.83 |  | 
−0.44 V | 1.30 V | 0.84 V | COc1ccc[n+](N)c1.[O-][Cl+3]([O-])([O-])[O-] [Entry 14] | 0.41 |  | 
−0.70 V | 1.73 V | 1.03 V | Nc1ccc[n+](N)c1 [Entry 15] | 0.72 | 1.1 moles of CO2 per mole of amine | 
−0.73 V | 2.46 V | 1.73 V | COc1cccc[n+]1N.O=[N+]([O-])[O-] [Entry 16] | 0.76 | 1.05 moles of CO2 per mole of amine | 
−0.43 V | 1.47 V | 1.04 V | Cc1cccc(C)[n+]1N.[O-][Cl+3]([O-])([O-])[O-] [Entry 17] |  |  | 
−0.44 V | 1.96 V | 1.52 V | Cc1cc(C)c[n+](N)c1.[O-][Cl+3]([O-])([O-])[O-] [Entry 18] |  |  | 

The remaining lines, values behind:

Compound | Ep^red vs Ag/AgCl [3] | Potential gap [3] | Ep^oxi vs Ag/AgCl [3] | εCO2 (electron utilization during CO2 release) ([5]; 3.5 mL) | CO2 capacity (absorption capacity) ([2]; 3.3 mL/min) | further results
1-aminopyridinyl (1-APyl) radical [1-APyl radical 2] |  |  |  |  |  | decrease of the capacity of the system ([1]; bubbled with nitrogen 10 mL/min, 30 days): 54%; decrease of the capacity of the system ([1]; pure dioxygen 10 mL/min, 1 day, vs freshly CO2-saturated solution): 6.6%; decrease of the capacity of the system ([1]; pure dioxygen 10 mL/min, 30 days): 46%; decrease of the capacity of the system ([1]; sealed under nitrogen, 1 day): 7.2%; decrease of the capacity of the system ([1]; sealed under nitrogen, 30 days): 22%; CO2 absorption rate compared with EDA and MEA ([2]; 0.2 M in 1 mL water, 15% CO2 balanced by nitrogen): comparable; constant CO2 capacity ([2]; 1, 4, 15 and 100% CO2 inlet gas streams, 3.3 mL/min, room temperature): 1.94 mole of CO2 per mole of amine; stability in water (from quasi-reversible CV wave) ([3]; water, room temperature): stable in water at room temperature
N[n+]1ccccc1 [1-AP nitrate, 1-aminopyridinium] |  |  |  |  |  | gas release rate ([4]; 0.2 M, 0.8 mmol in 4 mL water, 50 mA, 80% of full capacity, each of 5 cycles): 0.75 mL/min; robustness over cycles ([4]; 5 cycles): no significant loss in performance; stable electron utilization ([5]; 1 M 1-AP nitrate solution, 3.5 mL, 100 mA): 1.25; capacity of the electrochemical CO2 release process ([5]; per g of 1-AP nitrate): 12.4 mmol/g; electron utilization ([5]; solution prepared from 0.2 M 1-AP nitrate, 3.5 mL, 50 mA): up to 1.08; cell capacity usage, direct air capture [6]: 36%; electron utilization during CO2 release, direct air capture ([6]; 50 mA): up to 0.78; oxidative peak potential [3, 8]: −0.32 V vs. Ag/AgCl; reductive peak potential [3, 8]: −0.45 V vs. Ag/AgCl
COC(=O)c1cc[n+](N)cc1.F[B-](F)(F)F [Entry 1] | −0.34 V |  |  |  |  | 
CC(C)(C)c1cc[n+](N)cc1.[O-][Cl+3]([O-])([O-])[O-] [Entry 3] | −0.48 V | 1.31 V | 0.83 V | 0.52 |  | Low solubility (Observations) (Aqueous solubility): (<0.2M)
COc1cc[n+](N)cc1.[O-][Cl+3]([O-])([O-])[O-] [Entry 4] | −0.70 V | 1.75 V | 1.05 V | 0.70 |  | Low solubility (Observations) (Aqueous solubility): (<0.2M)
Nc1cc[n+](N)cc1 [Entry 5] | −0.48 V | 1.44 V | 1.02 V | 0.99 | 2.3 moles of CO2 per mole of amine | 
CN(C)c1cc[n+](N)cc1 [Entry 6] | −0.43 V | 1.28 V | 0.85 V | 0.99 | 2.0 moles of CO2 per mole of amine | 
NC(=O)c1cc[n+](N)cc1.O=[N+]([O-])[O-] [Entry 7] | −0.49 V | 1.37 V | 0.88 V | 0.69 | 1.1 moles of CO2 per mole of amine | 
N[n+]1c2ccccc2nc2ccccc21 [Entry 20, amino-phenazinium] |  |  |  |  |  | solubility (Aqueous solubility; read-out: Low solubility (Observations)): < 10 mM
O=C(O)O [carbonic acid] |  |  |  |  |  | pKa [7]: approximately 6.8
